# What was measured:
# [1] = tested on: Mouse 3T3-F442A cells; experiment: Triglyceride accumulation test (1), oil red staining; type: cell-based; settings: 100 μM, 4 days, differentiated 3T3-F442A adipocytes
# Method: Mouse 3T3-F442A cells (available from DAINIPPON PHARMACEUTICAL CO., LTD.) were disseminated on a 96-well microplate and were incubated at 37° C. and 5% CO2 over a period of 2 weeks using a DMEM culture medium (available from Invitrogen) containing 10% by mass of FCS.
# After differentiation of most cells into adipocytes had been observed with a microscope, the culture medium was replaced with one that contained 100 μM of any one of the test articles (a) to (c). The incubation was continued for another 4 days. The control was incubated using a culture medium that contained no test articles.
# After 4 days of incubation, the cells were washed three times with Dulbecco's PBS (−). The triglyceride accumulated in the cells was determined by oil red staining.
# [2] = tested on: Mouse 3T3-F442A cells; experiment: Triglyceride accumulation test (3): lowest concentration at which TG/cell survival ratio is not more than 80; type: cell-based; settings: lowest tested concentration with TG/cell survival ratio not more than 80 (control 100); 4 days
# Method: Likewise in Test Example 2, mouse 3T3-F442A cells (available from DAINIPPON PHARMACEUTICAL CO., LTD.) were disseminated on a 96-well microplate and were incubated at 37° C. and 5% CO2 over a period of 2 weeks using a DMEM culture medium (available from Invitrogen) containing 10% by mass of FCS.
# After differentiation of most cells into adipocytes had been observed with a microscope, the culture medium was replaced with one that contained any one of the test articles (a), (b) and (d) to (h) in an amount of 40 μM, 50 μM, 100 μM, 150 μM, 200 μM, 300 μM, 400 μM, 500 μM or […]. The incubation was continued for another 4 days. The control was incubated using a culture medium that contained no test articles.
# After 4 days of incubation, the cells were washed three times with Dulbecco's PBS (−). The triglyceride accumulated in the cells, and the cell survival rate were measured in similar manners as in Test Example 3.
# [3] = tested on: Human white preadipocytes; experiment: Triglyceride accumulation test (2), oil red staining; type: cell-based; settings: 4 days
# Method: (§1) After differentiation of most cells into adipocytes had been observed with a microscope, the culture medium was replaced with one that contained 100 μM or 1 mM of the test article (a), or 10 μM, 25 μM or 50 μM of the test article (b). The incubation was continued for another 4 days. The control was incubated using a culture medium that contained no test articles.
# (§2) After 4 days of incubation, the cells were washed three times with Dulbecco's PBS (−). The triglyceride accumulated in the cells was determined by oil red staining. The cell survival rate was measured by a calorimetric method (570 nm) using alamar blue reagent (manufactured by Molecular Probe).
# [4] = Skin permeation test (Test Example 1); type: in vitro ADME, minipig
# Method: The above test articles, each 0.5% by mass, were dissolved separately in Dulbecco's PBS (−).
# 2-cm square skin pieces of minipig (Charles River Laboratories Inc. (United States of America)) were placed in the Netwell (manufactured by Corning Incorporated), and assay rings (Teflon® rings with a center opening) on which a silicon sealant had been applied were pressed and fixed to the epidermis of the skin. Subsequently, 2 ml of a skin culture medium (TOYOBO CO., LTD.) was added to a multiwell plate, and the Netwell was set such that skin lower portions would be soaked. Each of the test article solutions, 0.1 ml, was slowly poured into the opening of assay ring; when no leakage was confirmed, the units were sealed with multiplate seals and were allowed to stand in an incubator at 37° C. and 5% carbon dioxide.
# After 4 hours, the test article solutions on the skin pieces were pipetted. The skin pieces were recovered from the Netwell, and distilled water in a washing bottle was poured thereover for washing. The assay rings were detached, and the central portions that had contacted with the solution were punched out with an 8 mm biopsy punch. The excised skin pieces were transferred to 1.5 ml tubes, and 1 ml of 0.5% trypsin solution was added to each tube. The trypsin solution was caused to permeate the skin piece for a day and a night at 4° C.
# Next day, the trypsin solution was removed, and the skin pieces were washed three times each with 1 ml of distilled water and were heated in an incubator at 37° C. for 5 minutes, resulting in release of the epidermis. The epidermis that had been released and been floating was peeled with tweezers to separate the skin piece into the epidermis and the dermis. The epidermis and dermis were separately transferred to new 1.5 ml tubes and were heated in an incubator at 37° C. for 30 minutes.
# Thereafter, the epidermis and the dermis were fed with 0.1 ml and 0.5 ml of distilled water, respectively, followed by freezing and thawing. […] Thus, a tissue extract was obtained.
# 400 μl of the reagent 4 was added to a sample tube containing 20 μl of the sample solution or the standard sample solution, followed by mixing. The mixture was allowed to stand at room temperature for at least 15 minutes. Thereafter, 40 μl of the reagent 3 was added and mixed together, and the mixture was allowed to stand at room temperature for at least 30 minutes. The absorbance at 750 nm was measured with a spectrophotometer, and the protein concentration in the sample solution was determined using a calibration curve obtained with the standard sample.
# [5] = tested on: Human white preadipocytes; experiment: Test for confirmation of breakdown of hydroxycitric acid derivative (amounts in cell extract, LC/MS); settings: 1 mM test article, 5 days, human adipocytes
# Method: (§4) Human white preadipocytes (available from Zen-Bio Inc.) were disseminated in two T-25 flasks and were incubated at 37° C. and 5% CO2 using a white preadipocyte culture medium (PM-1, available from Zen-Bio Inc.). After several days, microscopic observation confirmed that the cells had been confluent, and the medium was replaced with a human white preadipocyte differentiation medium (DM-1, available from Zen-Bio Inc.). After three days, the differentiation medium was changed to a white adipocyte medium (AM-1, available from Zen-Bio Inc.). Incubation was continued while renewing half of the white adipocyte medium every three days.
# (§5) After differentiation into adipocytes had been observed, the culture media in the flasks were each replaced with one that contained 1 mM of the test article (a) or 0.05 mM of the test article (b). The incubation was continued for another 5 days.
# (§6) After 5 days of incubation, the cells were released from the flask bottom by adding trypsin and were collected by centrifugation (at 1,000 rpm for 5 minutes). The cells collected were washed two times with Dulbecco's PBS (−), and were transferred to 1.5 ml tubes, followed by freezing and thawing. […]
# (§7) The test article in the extract was determined by LC/MS, and the protein in the extract was determined by the Lowry method as described in Test Example 1.
# [6] = tested on: Human white preadipocytes; experiment: Cell survival rate, alamar blue (Test Example 3); type: cell-based; settings: 4 days
# Method: as §1, §2
# [7] = tested on: Human white preadipocytes; experiment: Test (2) of use in combination with caffeine and the like, triglyceride accumulation; type: cell-based; settings: 50 μM, 4 days
# Method: (§3) After differentiation into adipocytes had been observed, the culture medium was replaced with one that contained 50 μM of (b), or 100 μM of (i), or 50 μM of (j), or 50 μM and 100 μM of (b) and (i) respectively, or 50 μM and 50 μM of (b) and (j) respectively. The incubation was continued for another 4 days. The control was incubated using a culture medium that contained no test articles.
# [8] = tested on: Human white preadipocytes; experiment: Cell survival rate (Test Example 6); type: cell-based; settings: 4 days, 50 μM
# Method: as §3
# [9] = tested on: Human white preadipocytes
# Method: as §4, §5, §6, §7
# [10] = tested on: Mouse 3T3-F442A cells; experiment: Test (1) of use in combination with caffeine, triglyceride accumulation; type: cell-based; settings: 0.05 mM (b) alone, which is the control (100%); 4 days
# Method: Mouse 3T3-F442A cells were incubated in a similar manner as in Test Example 2. After differentiation into adipocytes had been observed, the culture medium was replaced with one that contained 0.05 mM and 0.1 mM of the test article (b) and the test article (i), respectively. The incubation was continued for another 4 days. The control was incubated using a culture medium that contained 0.05 mM of the test article (b).
# After 4 days of incubation, the triglyceride accumulated in the cells was determined in a similar manner as in Test Example 2.
# [11] = dermis, test article 0.5% by mass in Dulbecco's PBS (-), 0.1 ml, 4 hours, 37°C
# [12] = epidermis, test article 0.5% by mass in Dulbecco's PBS (-), 0.1 ml, 4 hours, 37°C
compound,measurement,setting,value
Hydroxycitric acid monomethyl ester-2-palmitate sodium salt [(c)],Accumulated triglyceride amount (% relative to control),[1],84 % relative to control
Hydroxycitric acid-2-behenate sodium salt [(h)],Concentration for 20% reduction of TG amount relative to control,[2],40 µM
"Hydroxycitric acid calcium salt [(a), reference compound]",Concentration for 20% reduction of TG amount relative to control,[2],1e+06 µM
same,Accumulated triglyceride amount (% relative to control),[1],98 % relative to control
same,(1/2) × 100 (triglyceride amount / cell survival rate),[3]; 100 μM,98
same,Accumulated triglyceride amount (% relative to control): 1,[3]; 100 μM,86 % relative to control
same,(1/2) × 100 (triglyceride amount / cell survival rate),[3]; 1 mM,85
same,Accumulated triglyceride amount (% relative to control): 1,[3]; 1 mM,80 % relative to control
same,Determined value: amount of hydroxycitric acid in dermis,[4]; [11],0.2 nmol/mg skin protein
same,Determined value: amount of hydroxycitric acid in epidermis,[4]; [12],0.4 nmol/mg skin protein
same,Determined value: amount of hydroxycitric acid in cell extract,[5],0.6 nmol/mg protein
same,Cell survival rate (% relative to control): 2,[6]; 100 μM,88 % relative to control
same,Cell survival rate (% relative to control): 2,[6]; 1 mM,94 % relative to control
Hydroxycitric acid-2-caprate sodium salt [(e)],Concentration for 20% reduction of TG amount relative to control,[2],200 µM
"C[N+](C)(C)C[C@H](O)CC(=O)[O-].Cl [(j), L-carnitine hydrochloride, reference compound]",(1/2) × 100 (triglyceride amount / cell survival rate),[7],91
same,Accumulated triglyceride amount (% relative to control): 1,[7],93 % relative to control
same,Cell survival rate (% relative to control): 2,[8],102 % relative to control
CCCCCCCCCCCCCCCC(=O)OC(CC(=O)O)(C(=O)O)C(O)C(=O)O (centres unmarked) [hydroxycitric acid-2-palmitate],Breakdown within adipocytes (in words),[9],broken down within adipocytes to generate hydroxycitric acid
Hydroxycitric acid-2-myristate sodium salt [(g)],Concentration for 20% reduction of TG amount relative to control,[2],100 µM
Hydroxycitric acid-2-octanoate sodium salt [(d)],Concentration for 20% reduction of TG amount relative to control,[2],200 µM
Hydroxycitric acid-2-laurate sodium salt [(f)],Concentration for 20% reduction of TG amount relative to control,[2],150 µM
Hydroxycitric acid-2-palmitate sodium salt [(b)],(1/2) × 100 (triglyceride amount / cell survival rate),[7],75
same,Accumulated triglyceride amount (% relative to control): 1,[7],75 % relative to control
same,Concentration for 20% reduction of TG amount relative to control,[2],50 µM
same,Accumulated triglyceride amount (% relative to control),[1],52 % relative to control
same,(1/2) × 100 (triglyceride amount / cell survival rate),[3]; 10 μM,78
same,Accumulated triglyceride amount (% relative to control): 1,[3]; 10 μM,78 % relative to control
same,(1/2) × 100 (triglyceride amount / cell survival rate),[3]; 25 μM,71
same,Accumulated triglyceride amount (% relative to control): 1,[3]; 25 μM,72 % relative to control
same,(1/2) × 100 (triglyceride amount / cell survival rate),[3]; 50 μM,66
same,Accumulated triglyceride amount (% relative to control): 1,[3]; 50 μM,65 % relative to control
same,Accumulated triglyceride amount (% relative to control),[10],100 % relative to control
same,Determined value: amount of hydroxycitric acid-2-palmitate in dermis,[4]; [11],3.8 nmol/mg skin protein
same,Determined value: amount of hydroxycitric acid-2-palmitate in epidermis,[4]; [12],3.4 nmol/mg skin protein
same,Skin permeation (in words),"[4]; minipig skin, compared with (a)",can permeate the skin deeper into the dermis layer than hydroxycitric acid calcium salt (a)
same,Cell survival rate (% relative to control): 2,[6]; 10 μM,100 % relative to control
same,Cell survival rate (% relative to control): 2,[6]; 25 μM,101 % relative to control
same,Cell survival rate (% relative to control): 2,[6]; 50 μM,98 % relative to control

# — patent publication US7846970B2, “Hydroxycitric acid derivatives and skin external preparations containing the same” (Showa Denko K.K., priority 2004, dated 2010)
